Assays:
[1] = system: CEM acute lymphoblastic leukemia cell line; experiment: Growth inhibition of tumor cell lines in vitro (MTT / cell counting); format: cell-based; conditions: Homo sapiens, 96 h, 4 days
Procedure: (§1) The experiments were carried out on a murine lymphocytic leukemia cell line (L1210) and five human tumor cell lines: CEM, HeLa, NCI-H460, SW 620 and MCF-7. The cells were cultured as monolayers and maintained in Dulbecco′s modified Eagle medium (DMEM) supplemented with 10% fetal bovine serum (FBS), 2 mM L-glutamine, 100 U/mL penicillin and 100 μg/mL streptomycin in a humidified atmosphere with 5% CO2 at 37 °C.
(§2) The growth inhibition activity of the compounds was assessed as described previously. The cell lines were inoculated onto a series of standard 96-well microtiter plates on day 0, at 1.5 × 10^4 cells/mL (SW 620, H460) to 2.5 × 10^4 cells/mL (MCF-7, CEM and L1210), depending on the growth of the tumor cell line. Test agents were then added in ten-fold dilutions (10^−8 to 10^−4 M) and the cell cultures were then incubated for 3–4 days with 5% CO2 at 37 °C. Working dilutions of the compounds were freshly prepared on the day of testing.
(§3) After 3 (MCF-7, SW 620, NCI-H460) or 4 days (CEM, L1210), the cell growth rate was evaluated first light microscopically, then by viable cell counting and/or by performing the MTT assay, which detects dehydrogenase activity in live, not dead, cells. The absorbance (A) was measured on a microplate reader at 570 nm. The absorbance is directly proportional to the number of living, metabolically active cells. […] If however, all of the tested concentrations produce PGs exceeding the respective reference level of effect (e.g., PG value of 50), then the highest tested concentration is assigned as the default value, which is preceded by a “>” sign. Minimum two individual experiments were carried out and each test point was performed in quadruplicate.

[2] = system: HeLa cervical carcinoma cell line; experiment: as above; format: cell-based; conditions: Homo sapiens
Procedure: as §1, §2, §3

[3] = system: L1210 murine lymphocytic leukemia cell line; experiment: as above; format: cell-based; conditions: Mus musculus, 96 h; L1210, 4 days
Procedure: as §1, §2, §3

[4] = system: SW 620 colon carcinoma cell line; experiment: as above; format: cell-based; conditions: Homo sapiens, 72 h; SW 620, 3 days
Procedure: as §1, §2, §3

[5] = system: MCF-7 breast carcinoma cell line; experiment: as above; format: cell-based, human; conditions: Homo sapiens, MCF7, 72 h; MCF-7, 3 days
Procedure: as §1, §2, §3

[6] = system: NCI-H460 lung carcinoma cell line; experiment: as above; format: cell-based, human; conditions: Homo sapiens, 72 h; NCI-H460, 3 days
Procedure: as §1, §2, §3

[7] = Interaction with the stable radical DPPH (reducing ability)
Procedure: To a solution of DPPH in absolute ethanol the appropriate volume of the compounds (50 or 100 µM final concentrations) dissolved in DMSO was added. The absorbance was recorded at 517 nm after 20 and 60 min at room temperature. The experiments were repeated at least in triplicate and the standard deviation of absorbance was less than 10% of the mean. NDGA was used under the same experimental conditions as a reference compound.

[8] = target: T1, soybean lipoxygenase (LOX) (Glycine max, UniProt P08170); experiment: LOX inhibition study in vitro; format: biochemical; conditions: for inhibition at 100 µM: 1 × 10^−4 M
T1 construct: purchased Sigma-Aldrich
T1 sequence (P08170 1-839): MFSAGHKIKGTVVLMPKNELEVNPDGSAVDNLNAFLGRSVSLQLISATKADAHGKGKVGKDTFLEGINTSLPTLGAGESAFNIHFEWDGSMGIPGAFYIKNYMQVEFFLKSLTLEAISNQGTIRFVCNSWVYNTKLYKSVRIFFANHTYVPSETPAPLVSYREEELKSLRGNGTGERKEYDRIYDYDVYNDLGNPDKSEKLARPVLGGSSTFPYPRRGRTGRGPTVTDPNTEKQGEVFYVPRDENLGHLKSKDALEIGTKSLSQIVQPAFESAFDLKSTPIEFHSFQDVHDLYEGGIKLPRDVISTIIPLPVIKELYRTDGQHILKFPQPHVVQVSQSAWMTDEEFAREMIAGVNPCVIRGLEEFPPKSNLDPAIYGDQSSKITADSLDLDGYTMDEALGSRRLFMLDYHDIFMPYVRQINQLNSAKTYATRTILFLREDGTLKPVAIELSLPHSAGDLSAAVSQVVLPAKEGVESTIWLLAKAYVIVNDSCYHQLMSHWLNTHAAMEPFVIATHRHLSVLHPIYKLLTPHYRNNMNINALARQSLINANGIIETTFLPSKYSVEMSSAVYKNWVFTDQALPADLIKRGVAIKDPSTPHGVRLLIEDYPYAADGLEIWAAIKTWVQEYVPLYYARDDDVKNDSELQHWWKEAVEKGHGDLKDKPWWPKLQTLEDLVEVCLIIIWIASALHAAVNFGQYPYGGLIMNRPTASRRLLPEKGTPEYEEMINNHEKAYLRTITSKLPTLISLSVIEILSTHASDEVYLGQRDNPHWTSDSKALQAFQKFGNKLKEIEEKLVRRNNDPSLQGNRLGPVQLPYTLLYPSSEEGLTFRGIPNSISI
Procedure: LOX inhibitory assay in vitro was accomplished as described previously. The test compounds (stock solutions 10 mM in DMSO) were incubated at room temperature with sodium linoleate (c = 0.1 mM) and 0.2 mL of LOX enzyme solution (1/9 × 10^−4 m/V in saline). The conversion of sodium linoleate to 13-hydroperoxylinoleic acid was measured at 234 nm and compared with the reference inhibitor. Several concentrations were used for the IC50 determination.

[9] = Inhibition of linoleic acid peroxidation (AAPH-induced); conditions: 5 × 10^−5 M
Procedure: For initiating the lipid peroxidation free radical AAPH was used. Final solution in the UV cuvette consisted of 10 μL linoleate sodium solution (c = 16 mM), 0.93 mL phosphate buffer (c = 0.05 M), pH 7.4, thermostated at 37 °C. 50 μL AAPH solution (c = 40 mM) and 10 μL of the tested compounds were added. The experiment was performed at 37 °C under air. The oxidation of linoleic acid sodium salt was monitored at 234 nm. The assays were repeated at least in triplicate and the standard deviation of absorbance was less than 10% of the mean. Trolox was used under the same experimental conditions as a reference compound.

Compound | IC50 [1] | IC50 [2] | IC50 [3] | IC50 [4] | IC50 [5] | IC50 [6] | DPPH-reducing ability RA (%) ([7]; 1 × 10^−4 M, 20 min) | DPPH-reducing ability RA (%) ([7]; 1 × 10^−4 M, 60 min) | DPPH-reducing ability RA (%) ([7]; 5 × 10^−5 M, 20 min) | DPPH-reducing ability RA (%) ([7]; 5 × 10^−5 M, 60 min) | inhibition at 100 µM [8] | LP Inhibition (%) [9] | IC50 ([8]; values in parentheses in Table 3)
COc1cc(NC(C)CCCNC(=O)/C=C/c2ccccc2)c2ncccc2c1 (stereo not drawn) [3a, (E)-N-(4-(6-Methoxyquinolin-8-ylamino)pentyl)-3-phenylacrylamide] | 27 ± 4 µM | 4 ± 0.9 µM | 52 ± 3 µM | 23 ± 9 µM | 24 ± 5 µM | > 1 µM | 53% | 33% | 16% | 20% | 19% | 44% | –
COc1cc(NC(C)CCCNC(=O)/C(C)=C/c2ccccc2)c2ncccc2c1 (stereo not drawn) [3b, (E)-N-(4-(6-Methoxyquinolin-8-ylamino)pentyl)-2-methyl-3-phenylacrylamide] | 55 ± 6 µM | 106 ± 26 µM | 51 µM | > 100 µM | 9.4 ± 0.2 µM | > 100 µM | 5% | 37% | 2% | 2% | 14% | 79% | –
COc1ccc(/C=C/C(=O)NCCCC(C)Nc2cc(OC)cc3cccnc23)cc1 (stereo not drawn) [3c, (E)-3-(4-Methoxyphenyl)-N-(4-(6-methoxyquinolin-8-ylamino)pentyl)acrylamide] | 61 ± 30 µM | > 125 µM | 106 ± 6 µM | > 100 µM | 20 ± 3 µM | > 100 µM | 40% | 43% | 22% | 27% | 45% | 70% | –
COc1cc(NC(C)CCCNC(=O)/C=C/c2ccc(OC)c(OC)c2)c2ncccc2c1 (stereo not drawn) [3d, (E)-3-(3,4-Dimethoxyphenyl)-N-(4-(6-methoxyquinolin-8-ylamino)pentyl)acrylamide] | 90 ± 45 µM | > 125 µM | 100 ± 34 µM | > 100 µM | 16 ± 0.6 µM | > 100 µM | 34% | 31% | – | – | 43% | 73% | –
COc1cc(NC(C)CCCNC(=O)/C=C/c2cc(OC)c(OC)c(OC)c2)c2ncccc2c1 (stereo not drawn) [3e, (E)-N-(4-(6-Methoxyquinolin-8-ylamino)pentyl)-3-(3,4,5-trimethoxyphenyl)acrylamide] | 55 ± 16 µM | > 125 µM | 22 ± 2 µM | > 100 µM | 8.7 ± 0.3 µM | > 100 µM | 16% | 23% | 4% | 9% | 26% | 47% | –
COc1cc(NC(C)CCCNC(=O)/C=C/c2ccc3c(c2)OCO3)c2ncccc2c1 (stereo not drawn) [3f, (E)-3-(Benzo[d][1,3]dioxo-5-yl)-N-(4-(6-methoxyquinolin-8-ylamino)pentyl)acrylamide] | 37 ± 27 µM | 72 ± 57 µM | 59 ± 2 µM | > 100 µM | 6.9 ± 1.3 µM | > 100 µM | 11% | 33% | – | – | 34% | 87% | –
COc1cc(NC(C)CCCNC(=O)/C=C/c2ccc(Cl)cc2)c2ncccc2c1 (stereo not drawn) [3g, (E)-3-(4-Chlorophenyl)-N-(4-(6-methoxyquinolin-8-ylamino)pentyl)acrylamide] | 20 ± 2 µM | 36 ± 16 µM | 63 ± 2 µM | > 100 µM | 4.3 ± 1 µM | > 100 µM | 27% | 46% | – | – | 17% | 46% | –
COc1cc(NC(C)CCCNC(=O)/C=C/c2ccccc2F)c2ncccc2c1 (stereo not drawn) [3h, (E)-3-(2-Fluorophenyl)-N-(4-(6-methoxyquinolin-8-ylamino)pentyl)acrylamide] | 18 ± 15 µM | 2.1 ± 2.1 µM | 66 ± 5 µM | 0.3 ± 0.1 µM | 1.1 ± 0.6 µM | > 100 µM | – | – | – | – | 10% | 66% | –
COc1cc(NC(C)CCCNC(=O)/C=C/c2cccc(C(F)(F)F)c2)c2ncccc2c1 (stereo not drawn) [3i] | 41 ± 15 µM | 112 ± 11 µM | 68 ± 2 µM | 64 ± 41 µM | 11 ± 2 µM | > 100 µM | – | 8% | – | 13% | 19% | 32% | –
COc1cc(NC(C)CCCNC(=O)/C=C/c2ccc(C(F)(F)F)cc2)c2ncccc2c1 (stereo not drawn) [3j, (E)-N-(4-(6-Methoxyquinolin-8-ylamino)pentyl)-3-(4-(trifluoromethyl)phenyl)acrylamide] | 14 ± 1 µM | 25 ± 6 µM | 50 ± 18 µM | > 100 µM | 3.9 ± 0.6 µM | > 100 µM | 38% | 40% | – | – | – | 77% | 50 µM
COc1cc(NC(C)CCCNC(=O)/C=C/c2cc(C(F)(F)F)cc(C(F)(F)F)c2)c2ncccc2c1 (stereo not drawn) [3k, (E)-3-(3,5-Bis(trifluoromethyl)phenyl)-N-[4-(6-methoxyquinolin-8-ylamino)pentyl]acrylamide] | 68 ± 29 µM | 18 ± 1 µM | 92 ± 24 µM | > 100 µM | 2.6 ± 0.5 µM | > 100 µM | – | 50% | – | – | 43% | 65% | –
CC(Cc1ccc(O)c(O)c1)C(C)Cc1ccc(O)c(O)c1 (stereo not drawn) [NDGA, nordihydroguaiaretic acid, reference compound] | – | – | – | – | – | – | 89% | 94% | 83% | 87% | – | – | –
Cc1c(C)c2c(c(C)c1O)CCC(C)(C(=O)O)O2 (stereo not drawn) [Trolox, 6-hydroxy-2,5,7,8-tetramethylchroman-2-carboxylic acid, reference compound] | – | – | – | – | – | – | – | – | – | – | – | 88% | –
